Measured values reported in patent US20120148682A1.

Legend:
[1] = tested on: Septoria tritici isolate USA-184; assay: In vitro fungitoxicity in copper-minus and copper-plus medium; type: cell-based; settings: CuCl2 1 μM, without test compound
Experimental: Test compounds were dissolved in dimethylsulfoxide (DMSO) at 10 μg/mL and 1 μL aliquots were added to two wells of flat-bottomed 96-well microtiter plates. […] Control wells, included for each medium, received 1 uL DMSO and 100 μL of medium. Septoria tritici isolate USA-184 was grown on potato dextrose agar at 18° C. under black lights for 3 days. A loopful of spores was transferred from the culture to a 15 mL tube containing 5 mL of sterile Chelex-treated water. The spores were centrifuged at 2000 rpm for 2 min, resuspended in 10 mL water, and centrifuged again. […] Microtiter plate wells containing test compound of DMSO (control) as described above were inoculated with 100 μL of this spore suspension and the plates incubated at 25° C. for 90 h before assessing fungal growth by measuring light scattering in a NepheloStar plate reader. Growth inhibition was determined by comparing growth in the presence of test compound with growth in control wells lacking test compound. […] Plus Copper Observed”) were compared with predicted results (“% Inhn. Plus Copper Predicted”) that were calculated using the formula set forth by S. R. […] Minus Copper Observed”) and the inhibition attributed to copper chloride alone, as determined by comparing growth in copper-minus and copper-plus media without any test compound. […]

[2] = tested on: Leptosphaeria nodorum (LEPTNO); assay: In vitro fungitoxicity (growth inhibition) in copper-minus and copper-plus medium; type: cell-based
Experimental: Trace elements (minus CuSO4), and vitamins described by Coursen and […] were added from concentrated stock solutions and the entire medium was sterilized by filtration. […] […] was grown on potato dextrose agar in 9 cm diameter petri dishes for 7 days. Sterile deionized water (20 mL) was added to a culture plate and spores suspended by scraping the surface gently with a sterile plastic loop. The resulting suspension was filtered through a double layer of sterile cheesecloth. Filtered spore suspension (5 mL) was centrifuged in a bench centrifuge at 2000 rpm for 2 min. […] Microtiter plates were inoculated with 100 μL of this spore suspension and the plates incubated at 25° C. for 72 h before assessing fungal growth by measuring light scattering in a NepheloStar plate reader. Growth inhibition was determined by comparing growth in the presence of test compound with growth in control wells lacking test compound. Results for growth inhibition by test compounds in copper-plus medium (“% Inhn. Plus Copper Observed”) were compared with predicted values (“% Inhn. Plus Copper Predicted”) that were calculated using the formula set forth by S. R. […] Minus Copper Observed”) and the inhibition attributed to copper chloride alone, as determined by comparing growth in copper-minus and copper-plus media without any test compound across experiments. Results illustrate that hydrazones and copper produce a synergistic fungitoxic effect towards […].

[3] = tested on: Phytophthora capsici; assay: In vitro fungitoxicity in copper-minus AS and copper-plus AS medium; type: cell-based; settings: CuCl2 50 uM, without test compound, across experiments
Experimental: Plates were inoculated with 7-mm plugs from a 1-week old culture, incubated at 25° C. in the dark for 3 days, and then placed under fluorescent lights for 4 days to induce sporulation. Zoospore release from sporangia was induced by adding 15 mL of sterile deionized water (which had been treated with Chelex 100 resin using 0.5 g resin per liter of water by stirring at room temperature for 1 h) to each plate, and incubating for 10 min at 25° C. followed by 20 min at 4° C. The plates were returned to 25° C. for 10 min and the aqueous suspension of released zoospores was recovered. The zoospore suspension was adjusted to 5×10^4 spores/mL by dilution into Chelex 100-treated water. Microtiter plates were inoculated with 100 μL of spore suspension and incubated at 25° C. for 48 h before assessing fungal growth by measuring light scattering in a NepheloStar plate reader. Growth inhibition was determined by comparing growth in the presence of test compound with growth in control wells lacking test compound. Results for growth inhibition by test compounds in copper-plus AS medium (“% Inhn. Plus Copper Observed”) were compared with predicted values (“% Inhn. Plus Copper Predicted”) that were calculated using the formula set forth by S. R. […]

[4] = tested on: Ustilago maydis; assay: In vitro fungitoxicity in copper-minus and copper-plus medium; type: cell-based; settings: CuCl2 10 μM, without test compound
Experimental: Test compounds were dissolved in dimethylsulfoxide (DMSO) at 200 μg/mL and 1 μL aliquots were added to two wells of flat-bottomed 96-well microtiter plates. […] Control wells, included for each medium, received 1 uL DMSO and 100 μL of medium. Ustilago maydis was grown in 50 mL potato dextrose broth with shaking at 25° C. for 24 h. A 10 mL aliquot of the culture was centrifuged at 2000 rpm for 2 min, resuspended in 10 mL of sterile Chelex 100-treated water, and centrifuged again. […] Microtiter plate wells containing test compound of DMSO (control) as described above were inoculated with 100 μL of this spore suspension and the plates incubated at 25° C. for 48 h before assessing fungal growth by measuring light scattering in a NepheloStar plate reader. Growth inhibition was determined by comparing growth in the presence of test compound with growth in control wells lacking test compound. […] Plus Copper Observed”) were compared with predicted results (“% Inhn. Plus Copper Predicted”) that were calculated using the formula set forth by S. R. […] Minus Copper Observed”) and the inhibition attributed to copper chloride alone, as determined by comparing growth in copper-minus and copper-plus media without any test compound. Results illustrate that hydrazones and copper produce a synergistic fungitoxic effect towards Ustilago maydis.

[5] = tested on: Phytophthora infestans; type: in vivo; settings: 50 ppm hydrazone with 50 μM CuCl2.2H2O, applied 24 h before inoculation, tomato plants, 7 days after inoculation
[6] = tested on: Staphylococcus aureus, Escherichia coli, Aspergillus niger and A. flavus; settings: Proceedings of the National Academy of Sciences, India 1991; cited from earlier work

## [Cl][Cu][Cl] [CuCl2, copper chloride]
[1]
  % Inhibition copper chloride alone: 0%
[1]; listed as copper chloride
  % Inhibition copper chloride alone: no effect on growth
[2]; CuCl2 10 μM, without test compound, across experiments
  LEPTNO % Inhn. copper chloride alone: 7.1 ± 6.0%
[3]
  % Inhn copper chloride alone: 4.5 ± 7.9%
[4]
  % Inhn. copper chloride alone: 11.9%

## O=C(N/N=C/c1cccc(C(F)(F)F)c1O)c1ccc(C(F)(F)F)cc1O [Compound 42]
[2]; 0.05 μg/mL compound, copper-plus medium (CuCl2, 10 μM), 72 h
  LEPTNO % Inhn. Plus Copper Observed: 98.4%
[2]; Parastagonospora nodorum, 0.05 μg/mL compound, copper-minus medium, 72 h, read-out: LEPTNO % Inhn. Minus Copper Observed
  inhibition of growth at 0.05 µg/mL: 8.8%
[5]
  TLB % Control: 100.0%
other
  melting point: 248 to 253 °C

## O=C(NN=Cc1ccccc1O)c1ccccc1O [o-hydroxybenzaldehyde-N-salicyloylhydrazone]
[6]
  antimicrobial activity: Antimicrobial activity has been reported
